BindingDB's records for doi:10.1021/jm000317+ (Virginia Commonwealth University, 2001)

Assay: Ki value determined against Sigma opioid receptor type 2 using [3H]DTG(5 nM) with 1uM dextrallorphan to mask sigma1 binding

Row | SMILES | Ki
1 | CC1C2Cc3ccc(O)cc3[C@@]1(C)CCN2CCC#N (some centres not stated) [3-(8-Hydroxy-6,11-dimethyl-1,2,5,6-tetrahydro-4H-2,6-methano-benzo[d]azocin-3-yl)-propionitrile] | > 100 µM
2 | C=CCN1CC[C@]2(C)c3cc(O)ccc3CC1C2C (some centres not stated) [3-Allyl-6,11-dimethyl-1,2,3,4,5,6-hexahydro-2,6-methano-benzo[d]azocin-8-ol] | 27 µM
3 | C=CCCN1CC[C@]2(C)c3cc(O)ccc3CC1C2C (some centres not stated) [3-But-3-enyl-6,11-dimethyl-1,2,3,4,5,6-hexahydro-2,6-methano-benzo[d]azocin-8-ol] | 7.6 µM
4 | C#CCCN1CC[C@]2(C)c3cc(O)ccc3CC1C2C (some centres not stated) [3-But-3-ynyl-6,11-dimethyl-1,2,3,4,5,6-hexahydro-2,6-methano-benzo[d]azocin-8-ol] | 15 µM
5 | C=CCCCCN1CC[C@]2(C)c3cc(O)ccc3CC1C2C (some centres not stated) [3-Hex-5-enyl-6,11-dimethyl-1,2,3,4,5,6-hexahydro-2,6-methano-benzo[d]azocin-8-ol] | 0.76 µM
6 | CC1C2Cc3ccc(O)cc3[C@@]1(C)CCN2CCCC#N (some centres not stated) [4-(8-Hydroxy-6,11-dimethyl-1,2,5,6-tetrahydro-4H-2,6-methano-benzo[d]azocin-3-yl)-butyronitrile] | 34 µM
7 | CC1C2Cc3ccc(O)cc3[C@@]1(C)CCN2CCCCC#N (some centres not stated) [5-(8-Hydroxy-6,11-dimethyl-1,2,5,6-tetrahydro-4H-2,6-methano-benzo[d]azocin-3-yl)-pentanenitrile] | 13 µM
8 | C=CCCCN1CC[C@]2(C)c3cc(O)ccc3CC1C2C (some centres not stated) [6,11-Dimethyl-3-pent-4-enyl-1,2,3,4,5,6-hexahydro-2,6-methano-benzo[d]azocin-8-ol] | 2.5 µM
9 | C#CCCCN1CC[C@]2(C)c3cc(O)ccc3CC1C2C (some centres not stated) [6,11-Dimethyl-3-pent-4-ynyl-1,2,3,4,5,6-hexahydro-2,6-methano-benzo[d]azocin-8-ol] | 3.5 µM
10 | CC1C2Cc3ccc(O)cc3[C@@]1(C)CCN2CCCCCC#N (some centres not stated) [6-(8-Hydroxy-6,11-dimethyl-1,2,5,6-tetrahydro-4H-2,6-methano-benzo[d]azocin-3-yl)-hexanenitrile] | 5.7 µM
11 | CC1C2Cc3ccc(O)cc3[C@@]1(C)CCN2CCCCCCC#N (some centres not stated) [7-(8-Hydroxy-6,11-dimethyl-1,2,5,6-tetrahydro-4H-2,6-methano-benzo[d]azocin-3-yl)-heptanenitrile] | 1.9 µM
12 | CC1C2Cc3ccc(O)cc3[C@@]1(C)CCN2CC#N (some centres not stated) [(8-Hydroxy-6,11-dimethyl-1,2,5,6-tetrahydro-4H-2,6-methano-benzo[d]azocin-3-yl)-acetonitrile] | 93 µM
